According to patent publication US5859037A, “Sulfonylurea-glitazone combinations for diabetes” (Warner-Lambert Company, priority 1997, dated 1999):

Legend:
Type in all cases: in vivo, patients
[1] = tested on: non-insulin dependent diabetes mellitus (NIDDM); test: Glycemic control (FSG, HbA1c, responders) in 52-week double-blind clinical study; settings: for Fasting Serum Glucose, Adjusted Mean Change From Baseline (SE) / Hemoglobin A1c, Adjusted Mean Change From Baseline (SE): glyburide monotherapy (active control)
Text: The method of treating diabetes employing a combination of a sulfonylurea and a glitazone has been established in a long-term controlled clinical evaluation. The study determined the efficacy and safety of troglitazone alone and in combination with the sulfonylurea glyburide for the treatment of non-insulin dependent diabetes mellitus (NIDDM). This study targeted the segment of the NIDDM population in which the disease state has progressed to a point where maximum doses of sulfonylureas no longer produce adequate glycemic control. […] Since the unstimulated (absence of sulfonylurea) insulin secretory capacity of the beta cells is very low in this population, reversing insulin resistance alone would be of partial benefit. Therefore, maintaining a level of stimulated insulin secretion with a sulfonylurea while adding troglitazone to improve insulin sensitivity could provide a level of glycemic control unattainable by either medication alone. […] Long-term safety was also an objective of this study, assessed by adverse events and clinical laboratory data. This was a 12-month, double-blind, randomized, parallel-group, active-control, multicenter study design (FIG. 1). […] The primary efficacy parameters included endpoints related to glucose homeostasis: FSG and HbA1c. The change from baseline in these parameters at Week 52 compared to active control (glyburide) was the primary measure of efficacy. For patients terminating early from the study, their last observation was carried forward (LOCF) to Week 52. A decrease in these parameters was indicative of an improvement in glycemic control. Efficacy analysis was performed on 2 patient populations, intent-to-treat and completers. […] Patients withdrawing from the study before Week 52 were included in the analysis using the LOCF procedure; the last measurement on treatment was substituted for the missing Week 52 measurement. The intent-to-treat patient sample was the primary sample for assessing efficacy. Completers comprised patients in the intent-to-treat sample who completed Week 52. The analysis of change from baseline to Week 52 was performed using analysis of covariance (ANCOVA). The primary model included effects due to treatment and center and baseline as covariate. Treatment-by-baseline and treatment-by-center interactions were also examined in supplemental models. For the primary comparisons of glyburide versus each combination, step-down tests for linear trend in dose response were performed based on the primary model. For the remaining primary pairwise comparisons of glyburide versus each monotherapy, t-tests were performed using the MSE from the analysis of covariance (with a Bonferroni-Holm adjustment). For all comparisons with glyburide, 95 confidence intervals are provided using Dunnett's test. […] For each patient, the baseline measurement for a given parameter was defined as the measurement at Week 0. […] The frequency distribution (number and percentage) of responders were provided by treatment group and visit. For the set of primary treatment comparisons concerning glyburide versus combination therapy, step-down comparisons of responders in each treatment group versus the glyburide group were performed by sequential application of the Cochran-Mantel-Haenszel (CMH) test for linear trend with study centers as strata. […] The CMH test for general association were also used to perform the secondary treatment comparisons as supplemental analysis.

[2] = tested on: lipid parameters (markers of lipid metabolism); test: Fasting serum lipid profile in 52-week clinical study; settings: ITT, Week 52
Method: After an initial screening visit, patients meeting the inclusion criteria entered a 4-week baseline phase (unblinded) in which they received 12 mg micronized glyburide (6 mg BID).
Secondary efficacy parameters included markers of glycemic homeostasis (insulin and C-peptide) and markers of lipid metabolism (total cholesterol, total triglycerides, HDL, VLDL, LDL (measured), free fatty acids, Lp(a), Apo A1, and Apo B).
Efficacy analysis was performed on 2 patient populations, intent-to-treat and completers. […] Patients withdrawing from the study before Week 52 were included in the analysis using the LOCF procedure; the last measurement on treatment was substituted for the missing Week 52 measurement. The intent-to-treat patient sample was the primary sample for assessing efficacy. Completers comprised patients in the intent-to-treat sample who completed Week 52.
Summary statistics for baseline, follow-up (post-randomization), and change from baseline in secondary efficacy parameters were computed by treatment group and visit. For each patient, the baseline measurements for insulin, C-peptide, blood pressure, total cholesterol, triglycerides, LDL, HDL, VLDL, and free fatty acids were defined as the measurement at Week 0. In order to reduce variability, the baseline Apo A, Apo B, and Lp(a) levels were defined as the average of the respective measurements at Weeks -1 and 1. Similarly, the end-of-treatment Apo A, Apo B, and Lp(a) measurements were defined as the average of the respective measurements at Weeks 48 and 52. Averages from Weeks 20 and 24 were not carried forward for these special lipid parameters.
Fasting serum lipid profiles were determined at baseline and periodically through Week 52. Apo A1, Apo B, and Lp(a) were determined only at baseline, Month 6, and Month 12 as part of a special laboratory panel.

[3] = tested on: non-insulin dependent diabetes mellitus (NIDDM); test: Patient disposition (withdrawal, completion); settings: glyburide monotherapy
Text: This was a 12-month, double-blind, randomized, parallel-group, active-control, multicenter study design (FIG. 1). […] Patients could withdraw voluntarily at any time during the study or be withdrawn by the investigator because of significant adverse events or deterioration in health, poor compliance, pregnancy, or prolonged symptomatic hyperglycemia or persistent worsening or failure to improve glycemic control as monitored by FSG.

[4] = ITT, Week 52, glyburide (active control)
[5] = glyburide monotherapy (active control)

Structure (SMILES): COc1ccc(Cl)cc1C(=O)NCCc1ccc(S(=O)(=O)NC(=O)NC2CCCCC2)cc1 [Glyburide]
- Fasting Serum Glucose, Adjusted Mean Change From Baseline (SE) ([1]; Completers, Week 52): 13.1 (8.6) mg/dL
- Hemoglobin A1c, Adjusted Mean Change From Baseline (SE) ([1]; Completers, Week 52): 0.78 (0.27) %
- Fasting Serum Glucose, Adjusted Mean Change From Baseline (SE) ([1]; ITT, Week 52 (Month 12)): 22.7 (6.9) mg/dL
- ≥30 mg/dL Reduction in FSG, Responders, N (%) [1, 4]: 10 (13) N (%)
- ≥1% Reduction in HbA1c, Responders, N (%) [1, 4]: 4 (5) N (%)
- Hemoglobin A1c, Adjusted Mean Change From Baseline (SE) ([1]; ITT, Week 52): 0.90 (0.20) %
- Hemoglobin A1c, Adjusted Mean Change From Baseline (SE) ([1]; ITT, Week 52, listed as glyburide): 0.90%
- patients with HbA1c of ≤7% ([1]; Week 52, glyburide monotherapy): 1%
- patients with HbA1c of ≤8% ([1]; end of study, glyburide (active control)): 10%
- LDL Cholesterol, Change From Baseline, Mean ([2]; Glynase (active control)): 3.49 mg/dL
- LDL Cholesterol, Change From Baseline, Median ([2]; Glynase (active control)): 4.00 mg/dL
- Total Cholesterol, Change From Baseline, Mean ([2]; Glynase (active control)): 6.17 mg/dL
- Total Cholesterol, Change From Baseline, Median ([2]; Glynase (active control)): 6.50 mg/dL
- Apo A1, Change From Baseline, Mean [2, 5]: -1.1 mg/dL
- Apo B, Change From Baseline, Mean [2, 5]: 2.9 mg/dL
- Free Fatty Acids, Change From Baseline, Mean [2, 5]: -0.05 mEq/L
- Free Fatty Acids, Change From Baseline, Median [2, 5]: 0.03 mEq/L
- HDL Cholesterol, Change From Baseline, Mean [2, 5]: -0.15 mg/dL
- HDL Cholesterol, Change From Baseline, Median [2, 5]: -1.00 mg/dL
- LP(a), Change From Baseline, Mean [2, 5]: 1.4 mg/dL
- Triglycerides, Change From Baseline, Mean [2, 5]: 14.24 mg/dL
- Triglycerides, Change From Baseline, Median [2, 5]: 8.00 mg/dL
- VLDL Cholesterol, Change From Baseline, Mean [2, 5]: -2.78 mg/dL
- VLDL Cholesterol, Change From Baseline, Median [2, 5]: -1.00 mg/dL
- Triglycerides, Change From Baseline, Mean ([2]; glyburide monotherapy (active control), listed as glyburide): 14 mg/dL
- Withdrawn, Adverse Event, Number (%) of Patients [3]: 6 (7.6) Number (%) of Patients
- Withdrawn, Lack of Efficacy, Number (%) of Patients [3]: 20 (25.3) Number (%) of Patients
- withdrawal for lack of efficacy [3]: Twenty-five
